According to US20080280920A1, “Plasminogen Activator Inhibitor-1 Inhibitors” (priority 2005, published 2008):

Target: T1, wildtype human PAI-1 (Homo sapiens, UniProt P05121)
T1 construct: purchased Molecular Innovations Lot# HWT-804
Experiment: PAI-1/uPA assay (residual uPA activity, fluorescent substrate SpectroFluor)
Format: biochemical
Conditions: for Percent PAI-1 inhibition: at the concentration given, percent of activity of untreated PAI-1; for Conc. of compound required for PAI-1 inhibition: concentration giving the percent inhibition, 6 nM PAI-1, 8 nM uPA; for Conc. of compound required for PAI-1 inhibition (result in words): within the concentration range tested
Experimental: Principle: The assay is based on using a fluorescent substrate (SpectroFluor) to measure residual uPA following inhibition of uPA by PAI-1. PAI-1 used in the assay is pre-treated in the presence of increasing concentrations of the lead compounds to screen for any inhibitory effects on PAI-1. Method: This assay was performed in 96 well microtiter plates. The concentrations of uPA (8 nM) and PAI-1 (6 nM) used in this assay were carefully optimized when using the fluorescent substrate, SpectroFluor™. Stock solutions (10 mM) of all lead compounds were prepared fresh in DMSO. […] 20 μl of 6 nM wildtype human PAI-1 (Molecular Innovations, Lot# HWT-804) was incubated for 15-20 minutes at room temperature in 96 well microtiter plates either with buffer, (50 mM HEPES, 150 mM NaCl, 0.05% Tween-20, 1% BSA, pH 6.6) or various concentrations (10 nM to 100 μM final concentration) of lead compounds in a total volume of 80 μl. A 20 μl aliquot of 8 nM uPA (HMW) solution in 0.05M Tris Buffered™ saline (TBS), pH 8.4 was added to each well and the mixture incubated for an additional 5 minutes at RT. The proteolytic reaction was initiated by addition of 50 μl of 0.1 mM SpectroFluor (Spectrozyme UK Fluorogenic substrate) to each well. The kinetics of the free chromophore, 7-amino-4-methylcoumarin (AMC) released in the course of peptide cleavage by the protease, uPA, was monitored for 30 minutes at 37° C. on a spectrofluorometric microplate reader with an excitation wavelength of 360 nm and emission wavelength of 440 nm. Kinetic data regarding the rate of substrate cleavage by uPA was acquired with Softmax PrO™ software. The difference between the residual uPA activity in the presence or absence of untreated PAI-1, at the molar ratio used, was considered as the “total” PAI-1 activity (100%). The inhibition of uPA by PAI-1 treated with lead compounds was expressed as a percentage of the initial activity of untreated PAI-1. Controls were performed during each experiment to ensure the nearly complete inhibition of uPA by untreated PAI-1 and also to ensure the absence of any direct effect of the lead compounds on uPA alone or on SpectroFluor.

T1 sequence (P05121 24-402): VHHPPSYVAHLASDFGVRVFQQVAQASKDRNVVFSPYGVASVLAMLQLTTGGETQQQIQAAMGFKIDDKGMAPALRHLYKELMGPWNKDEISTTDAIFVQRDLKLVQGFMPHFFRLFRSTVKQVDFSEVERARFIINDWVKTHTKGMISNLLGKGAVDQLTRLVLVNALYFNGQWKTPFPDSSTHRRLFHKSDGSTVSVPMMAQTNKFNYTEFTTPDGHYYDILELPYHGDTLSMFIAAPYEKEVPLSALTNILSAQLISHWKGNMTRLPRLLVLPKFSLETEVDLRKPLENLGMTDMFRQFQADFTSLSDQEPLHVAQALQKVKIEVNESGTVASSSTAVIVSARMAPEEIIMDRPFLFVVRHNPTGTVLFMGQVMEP

Row | Percent PAI-1 inhibition | Conc. of compound required for PAI-1 inhibition [µM] | Conc. of compound required for PAI-1 inhibition (result in words) | SMILES
1 | 22 | 250 |  | COc1cc(CNc2ccccn2)cc(CN2CCN(c3ccccn3)CC2)c1O [Compound Q012143]
2 |  |  | No inhibition | O=C(O)c1cc(/C=C2\NC(=O)N(Cc3ccccc3)C2=O)ccc1O [Compound Q013012, 5-[(Z)-(1-benzyl-2,5-dioxoimidazolidin-4-ylidene)methyl]-2-hydroxybenzoic acid]
3 |  |  | No inhibition | O=C1N/C(=C\c2c[nH]c3ccccc23)C(=O)N1Cc1ccccc1 [Compound Q013019]
4 | 22 | 0.5 |  | COc1cc(/C=C/C(=O)CC(=O)/C=C/c2ccc(O)c(OC)c2)ccc1O [Curcumin, curcumin, reference compound]
5 |  |  | No inhibition | COc1cc(/C=C2\NC(=O)N(Cc3ccc(O)cc3)C2=O)cc(CN2CCN(C)CC2)c1O [Compound Q013024]
6 | 25 | 1 |  | CN(C)CCSc1ccc(/C=C2\NC(=O)N(Cc3ccc(OCc4ccccc4)cc3)C2=O)s1 [Compound Q013021]
7 |  |  | No inhibition | O=C1N/C(=C\c2csc3ccccc23)C(=O)N1Cc1csc2ccccc12 [Compound Q013018]

The next lines start with the molecule.

Row | SMILES | Percent PAI-1 inhibition | Conc. of compound required for PAI-1 inhibition [µM] | Conc. of compound required for PAI-1 inhibition (result in words)
8 | Cc1cc(=O)oc2cc(OCC(=O)N[C@@H](Cc3csc4ccccc34)C(=O)O)ccc12 [Compound Q012055A, (S)—N-[(4-methyl-2-oxo-2H-chromen-7-yl)oxyacetyl]-3-(thianaphthen-3-yl)alanine] | 41 | 1 | 
9 | CCOC(=O)[C@H](Cc1csc2ccccc12)NC(=O)[C@@H]1CCCNC1 [Compound Q012127, (2S)-3-(thianaphthen-3-yl)-2-({[(3R)-piperidin-3-yl]carbonyl}amino)propanoic acid ethyl ester] | 13 | 250 | 
10 | CC(C)(C)OC(=O)N1CCC[C@@H](C(=O)N[C@@H](Cc2csc3ccccc23)C(=O)O)C1 [Compound Q012128, (2S)-3-(thianaphthen-3-yl)-2-({[(3R)—N-t-butyloxycarbonylpiperidin-3-yl]carbonyl}amino)propanoic acid] | 14.5 | 10 | 
11 | CCOC(=O)[C@H](Cc1ccccc1)NC(=O)Nc1ccc2c(C)cc(=O)oc2c1 [Compound Q012053, (2S)-2-({[(4-Methyl-2-oxo-2H-chromen-7-yl)amino]carbonyl}amino)-3-phenylpropanoic acid ethyl ester] | 44 | 10 | 
12 | O=C(COc1ccc2c(C(F)(F)F)cc(=O)oc2c1)N[C@@H](Cc1csc2ccccc12)C(=O)O [Compound Q012125, (2S)-2-({[2-oxo-4-(trifluoromethyl)-2H-chromen-7-yl]oxy}acetyl)amino-3-(thianaphthen-3-yl)propanoic acid] |  |  | No inhibition
13 | N=C(N)N1CCC[C@@H](C(=O)N[C@@H](Cc2csc3ccccc23)C(=O)O)C1 [Compound Q012130, (2S)-3-(thianaphthen-3-yl)-2-({[(3R)—N-[amino(imino)methyl]piperidin-3-yl]carbonyl}amino)propionic acid] |  |  | No inhibition
14 | CC(C)(C)OC(=O)Nc1ccc(O)c(C(=O)NCCO)c1 [Compound Q012021B, tert-Butyl 4-hydroxy-3-{[(2-hydroxyethyl)amino]carbonyl}phenylcarbamate] | 25 | 10 | 
15 | Cl.O=C(N[C@@H](Cc1csc2ccccc12)C(=O)O)c1cncc(Br)c1 [Compound Q011265, (S)—N-(5-bromonicotinoyl)-3-(thianaphthen-3-yl)alanine hydrochloride] | 20 | 1 | 
16 | COc1cc(CNCc2ccc(C(=O)O)cc2)cc(CN2CCN(c3ccccn3)CC2)c1O [Compound Q012136] | 15 | 50 | 
